Legend:
[1] = test system: hair follicles of alopecia-induced C57BL/6 mice; assay: Histological change in mouse hair follicles (hematoxylin-eosin staining); format: in vivo; conditions: skin tissue collected at week 5, H&E, optical microscope, FIGS. 5a-b
Procedure: (§1) The animal experiment was carried out in compliance with the Animal use and Care Protocol of the Institutional Animal Care and Use Committee (IACUC). Seven-week-old male C57BL/6 mice were purchased and acclimated for 1 week, and then bred for 5 weeks. Regarding the breeding environment, the mice were bred at a constant temperature (22° C.) and relative humidity (40% to 60%) with a 12-hr light/12-hr dark cycle. A chow diet was fed to all experimental groups. […] In order to make an alopecia model, 0.5 mg/day of testosterone was subcutaneously injected to mice in all experimental groups. A group in which alopecia was induced by testosterone administration was used as a negative control group, and finasteride was orally administered at 0.5 mg/kg/day as a positive control group. In the groups in which live bacteria and killed bacteria of the genus Akkermansia of the present invention are administrated, PBS containing L-cysteine and glycerol was orally administered as a vehicle. [table] In order to confirm the morphological change of male C57BL/6 mouse hair follicles, skin tissues collected at week 5 after transdermal administration were stained with hematoxylin-eosin and observed with an optical microscope to confirm the number of hair follicles, and the results are shown in FIGS. 5a and 5b.

[2] = test system: alopecia-induced mice (testosterone); assay: Hair growth length increase effect; format: in vivo, C57BL/6 mice; conditions: after the 5-week experiment, average per group, FIGS. 2a-b
Procedure: as §1, with “[table] After the 5-week experiment was completed, the hair length was measured for individuals in each experimental group” for “[table] In order”, “to calculate” for “to confirm the morphological change of male C57BL/6 mouse hair follicles, skin tissues collected at week 5 after transdermal administration were stained with hematoxylin-eosin and observed with”, “an average value,” for “an optical microscope to confirm the number of hair follicles,”, “results of the hair growth length increase effect experiment” for “results”, “shown as a graph” for “shown”, “in FIG. 2.” for “in FIGS. 5a and 5b.”

[3] = test system: alopecia-induced mice (testosterone); assay: Confirmation of mouse hair growth through photograph; format: in vivo; conditions: testosterone 0.5 mg/day s.c. alopecia model, male C57BL/6 mice, daily treatment for 5 weeks, FIG. 1
Procedure: The animal experiment was carried out in compliance with the Animal use and Care Protocol of the Institutional Animal Care and Use Committee (IACUC). Seven-week-old male C57BL/6 mice were purchased and acclimated for 1 week, and then bred for 5 weeks. Regarding the breeding environment, the mice were bred at a constant temperature (22° C.) and relative humidity (40% to 60%) with a 12-hr light/12-hr dark cycle. A chow diet was fed to all experimental groups.
In order to make an alopecia model, 0.5 mg/day of testosterone was subcutaneously injected to mice in all experimental groups. A group in which alopecia was induced by testosterone administration was used as a negative control group, and finasteride was orally administered at 0.5 mg/kg/day as a positive control group. In the groups in which live bacteria and killed bacteria of the genus Akkermansia of the present invention are administrated, PBS containing L-cysteine and glycerol was orally administered as a vehicle.
For the mice in each experimental group, the degree of hair growth was observed through photographing hair. […] From the left side, there are the results of the negative control group (Testosterone), the positive control group (T+Finasteride), the Akkermansia muciniphila live bacteria-administered group (T+EB-AMDK19), and the Akkermansia muciniphila killed bacteria-administered group (T+EB-AMDK19 HI). […]

`CC(C)(C)NC(=O)[C@H]1CC[C@H]2[C@@H]3CC[C@H]4NC(=O)C=C[C@]4(C)[C@H]3CC[C@]12C` [finasteride] was tested, and the “number of telogen hair follicles compared to the negative control group” value [1] was “increased”, the “hair length, comparison between treated groups” value [2] was “showed similar patterns” and the “hair growth / regrowth in hair loss regions (photograph)” value [3] was “almost all regions thereof were changed to black at week 5”. For the same molecule, the “skin color change in hair loss regions of the back (photograph)” value [3] was “skin color was darkened from week 3 of treatment”.
